Laboratory results from patent publication US20260224688A1, “HELPER LIPIDS FOR NUCLEIC ACID DELIVERY” (SANOFI PASTEUR INC., priority 2023, published 2026).

Tests used:
hEPO [1] = assay: IM EPO expression of LNPs containing new helper lipids (hEPO in serum by ELISA); assay type: in vivo, female BALB/cJ mice; settings: single IM injection; for 24-h EPO: serum 24 hours post injection
Protocol: Lipid nanoparticles were formulated containing the four lipid components shown below at a ratio of 40:30:28.5:1.5, complexed with a hEPO messenger RNA. • Cationic lipid, 40 mol % • Phospholipid (PEA) helper lipid, 30 mol % • Cholesterol, 28.5 mol % • DMG-PEG-2K (1,2-dimyristoyl-rac-glycero-3-methoxypolyethyleneglycol), 1.5 mol % The cationic lipid component of each formulation was selected from the compounds in the table below: […]
EPO expression studies were conducted with female BALB/cJ mice 6-8 weeks of age. Mice were dosed with […] EPO mRNA in 30 μL of LNPs by a single intramuscular (IM) injection into the gastrocnemius leg muscle. Blood samples were taken 6 and 24 hours post injection and hEPO levels were measured in the blood serum of the mice using an ELISA assay according to the manufacture's protocol. WO2022/099003 A1 also describes an in vivo assay for intramuscular administration (e.g. on page 46, paragraph [00206]).

[2] = mRNA encapsulation efficiency of lipid nanoparticles; assay type: physicochemical; settings: for Encapsulation efficiency (EE): LNP with cationic lipid CL-A
Excerpt: In embodiments, the lipid nanoparticle encapsulates a nucleic acid, optionally an mRNA encoding a peptide or protein. In embodiments, the lipid nanoparticle encapsulates an mRNA encoding a peptide or protein, optionally for use in a vaccine. In embodiments, the peptide is an antigen. As used herein, the phrase “encapsulation percentage” refers to the fraction of therapeutic agent (e.g. mRNA) that is effectively encapsulated within a liposomal-based vehicle (e.g. a lipid nanoparticle) relative to the initial fraction of therapeutic agent present in the lipid phase. In embodiments, the lipid nanoparticles have an encapsulation percentage for mRNA of at least 50%. In embodiments, the lipid nanoparticles have an encapsulation percentage for mRNA of at least 55%. In embodiments, the lipid nanoparticles have an encapsulation percentage for mRNA of at least 60%. In embodiments, the lipid nanoparticles have an encapsulation percentage for mRNA of at least 65%. In embodiments, the lipid nanoparticles have an encapsulation percentage for mRNA of at least 70%. In embodiments, the lipid nanoparticles have an encapsulation percentage for mRNA of at least 75%. In embodiments, the lipid nanoparticles have an encapsulation percentage for mRNA of at least 80%. In embodiments, the lipid nanoparticles have an encapsulation percentage for mRNA of at least 85%. In embodiments, the lipid nanoparticles have an encapsulation percentage for mRNA of at least 90%. In embodiments, the lipid nanoparticles have an encapsulation percentage for mRNA of at least 95%. In embodiments, the encapsulation percentage is calculated by performing the Ribogreen assay (Invitrogen) with and without the presence of 0.1% Triton-X 100.
The lipid nanoparticles in the examples of the present invention were formulated using Process A of WO 2018/089801 (see, e.g., Example 1 and FIG. 1 of WO 2018/089801). Process A (“A”) relates to a conventional method of encapsulating mRNA by mixing mRNA with a mixture of lipids, without first pre-forming the lipids into lipid nanoparticles. In an exemplary process, an ethanolic solution of a mixture of lipids (cationic lipid, phosphatidylethanolamine, cholesterol, and polyethylene glycol-lipid) at a fixed lipid to mRNA ratio were combined with an aqueous buffered solution of target mRNA at an acidic pH under controlled conditions to yield a suspension of uniform LNPs. After ultrafiltration and diafiltration into a suitable diluent system, the resulting nanoparticle suspensions were diluted to final concentration, filtered, and stored frozen at −80° C. until use.
(§1) Lipid nanoparticle formulations 3 were prepared by Process A at a molar ratio of 40:1.5:30:28.5 (Cationic Lipid: DMG-PEG2000: Cholesterol: Helper Lipid) with the cationic lipids and helper lipids disclosed in the tables below. The Polydispersity Index (Pdl) of lipid nanoparticles can be determined by diluting the formulation in 10% trehalose at about 0.1 mg/ml mRNA concentration and then measuring the size on Malvern zetasizer. The lipid nanoparticle size can be obtained with Malvern Zetasizer Nano-ZS.

[3] = Dynamic light scattering of lipid nanoparticles (size, PDI); assay type: physicochemical
Protocol: as §1
Dynamic light scattering (DLS) measurements were performed using a Malvern Instruments Zetasizer with a backscattering detector angle of 173° and a 4-mW, 633-nm He—Ne laser (Worcestershire, UK). The samples were analyzed by diluting in 10% Trehalose and measuring the size and Poly dispersity Index (PDI) in an optical grade polystyrene cuvette.

hEPO [4] = assay: IV EPO expression of LNPs (tail vein injection); assay type: in vivo, female BALB/cJ mice; settings: cationic lipid CL-0137, helper lipid 30 mol %; 0.017 μg EPO mRNA tail vein; 6 hours; DOPE = 1
Protocol: Lipid nanoparticles were formulated containing the four lipid components shown below at a ratio of 40:30:28.5:1.5, complexed with a hEPO messenger RNA. • Cationic lipid CL-0137, 40 mol % • Helper lipid, 30 mol % • Cholesterol, 28.5 mol % • DMG-PEG-2K (1,2-dimyristoyl-rac-glycero-3-methoxypolyethyleneglycol), 1.5 mol %
EPO expression studies were conducted with female BALB/cJ mice 6-8 weeks of age. Mice were dosed with 0.017 μg EPO mRNA LNPs in a volume of 5 ul by a single tail vein injection. Blood samples were taken 6 hours post injection and hEPO levels were measured in the blood serum of the mice using an ELISA assay according to the manufacture's protocol.

[5] = CL-B LNP, serum 6 hours post injection
[6] = LNP with cationic lipid CL-A, hEPO mRNA, 40:30:28.5:1.5
[7] = CL-A LNP, 0.1 μg EPO mRNA in 30 μL, serum 6 hours post injection

Row | SMILES | Encapsulation efficiency (EE) [2] | EE ([2]; LNP with cationic lipid CL-B) | EE ([2]; LNP with cationic lipid CL-C) | Polydispersity Index (PDI) ([3]; LNP with cationic lipid CL-A) | Size [3, 6] | PDI ([3]; LNP with cationic lipid CL-B) | Size ([3]; LNP with cationic lipid CL-B) | PDI ([3]; LNP with cationic lipid CL-C) | Size ([3]; LNP with cationic lipid CL-C) | EE ([2]; LNP with cationic lipid CL-D) | PDI ([3]; LNP with cationic lipid CL-D) | Size ([3]; LNP with cationic lipid CL-D) | 6-h EPO (hEPO [1]; [5]) | 24-h EPO (hEPO [1]; CL-B LNP) | 6-h EPO (hEPO [1]; CL-C LNP) | 6-h EPO (hEPO [1]; CL-C LNP, (6-h)) | Normalized Mean IV EPO expression (hEPO [4]) | 6-h EPO (hEPO [1]; [7]) | 24-h EPO (hEPO [1]; CL-A LNP)
1 | CCCCCCCCC(CCCCC)COC(=O)CCC(=O)OCC(COP(=O)(O)OCCN)OC(=O)CCC(=O)OCC(CCCCC)CCCCCCCC (centres unmarked) [Compound 5, O,O′-(3-(((2-Aminoethoxy)(hydroxy)phosphoryl)oxy)propane-1,2-diyl) bis(2-pentyldecyl) disuccinate] | 91% | 90% | 88% | 0.106 | 121 nm | 0.108 | 98.9 nm | 0.047 | 97.9 nm |  |  |  | 9.8 ng/mL | 6.4 ng/mL | 10.1 ng/mL | 13.3 ng/mL | 1.25 |  | 
2 | CCCCCCCCC(CCCCCCCC)OC(=O)CCCCCCCC(=O)OCC(COP(=O)(O)OCCN(C)C)OC(=O)CCCCCCCC(=O)OC(CCCCCCCC)CCCCCCCC (centres unmarked) [Compound 16, O′^1,O^1-(3-(((2-(Dimethylamino)ethoxy)(hydroxy)phosphoryl)oxy)propane-1,2-diyl) 9-di(heptadecan-9-yl) di(nonanedioate)] | 95% | 94% | 91% | 0.052 | 128 nm | 0.069 | 108.1 nm | 0.077 | 102.7 nm |  |  |  | 32.1 ng/mL |  |  | 9.7 ng/mL | 1.59 | 17.4 ng/mL | 
3 | CCCCCCCCOC(=O)CCCCCCCC(=O)OCC(COP(=O)(O)OCCN(C)C)OC(=O)CCCCCCCC(=O)OCCCCCCCC (centres unmarked) [Compound 7, O′^1,O^1-(3-(((2-(Dimethylamino)ethoxy)(hydroxy)phosphoryl)oxy)-propane-1,2-diyl) 9-dioctyl di(nonanedioate)] | 88% | 92% | 92% | 0.09 | 120 nm | 0.111 | 88.2 nm | 0.099 | 87.4 nm | 85% | 0.089 | 121.9 nm | 3.7 ng/mL | 1.4 ng/mL | 2.6 ng/mL | 5.5 ng/mL | 0.52 |  | 
4 | CCCCCCCCC(CCCCCCCC)OC(=O)CCCCCC(=O)OCC(COP(=O)(O)OCCN(C)C)OC(=O)CCCCCC(=O)OC(CCCCCCCC)CCCCCCCC (centres unmarked) [Compound 15, O′^1,O^1-(3-(((2-(Dimethylamino)ethoxy)(hydroxy)phosphoryl)oxy)propane-1,2-diyl) 7-di(heptadecan-9-yl) di(heptanedioate)] | 95% | 94% | 91% | 0.083 | 138 nm | 0.087 | 110.7 nm | 0.091 | 108.0 nm |  |  |  | 30 ng/mL |  |  | 15.2 ng/mL | 2.24 | 25.3 ng/mL | 

The next lines start with results.

Row | Encapsulation efficiency (EE) [2] | EE ([2]; LNP with cationic lipid CL-B) | EE ([2]; LNP with cationic lipid CL-C) | Polydispersity Index (PDI) ([3]; LNP with cationic lipid CL-A) | Size [3, 6] | PDI ([3]; LNP with cationic lipid CL-B) | Size ([3]; LNP with cationic lipid CL-B) | PDI ([3]; LNP with cationic lipid CL-C) | Size ([3]; LNP with cationic lipid CL-C) | EE ([2]; LNP with cationic lipid CL-D) | PDI ([3]; LNP with cationic lipid CL-D) | Size ([3]; LNP with cationic lipid CL-D) | SMILES | 6-h EPO (hEPO [1]; [5]) | 24-h EPO (hEPO [1]; CL-B LNP) | 6-h EPO (hEPO [1]; CL-C LNP) | 6-h EPO (hEPO [1]; CL-C LNP, (6-h)) | Normalized Mean IV EPO expression (hEPO [4]) | 6-h EPO (hEPO [1]; [7]) | 24-h EPO (hEPO [1]; CL-A LNP)
5 | 85% | 86% | 87% | 0.048 | 125 nm | 0.112 | 104.7 nm | 0.123 | 109.5 nm |  |  |  | CCCCCCCCC(CCCCC)COC(=O)CCC(=O)OCC(COP(=O)(O)OCCN)OC(=O)CCC(=O)OCC(CCCCC)CCCCCCCC (centres unmarked) [Compound 4, O,O′-(3-(((2-Aminoethoxy)(hydroxy)phosphoryl)oxy)propane-1,2-diyl) bis(2-pentyldecyl) disuccinate] | 13.7 ng/mL | 11.6 ng/mL | 20.1 ng/mL | 22.3 ng/mL | 2.38 |  | 
6 | 94% | 93% | 92% | 0.075 | 136 nm | 0.095 | 112.7 nm | 0.078 | 110.6 nm |  |  |  | CCCCCCCCCCC(CCCCCCCCCC)OC(=O)CCCCCCC(=O)OCC(COP(=O)(O)OCCN(C)C)OC(=O)CCCCCCC(=O)OC(CCCCCCCCCC)CCCCCCCCCC (centres unmarked) [Compound 19, O′1,O1-(3-(((2-(dimethylamino)ethoxy)(hydroxy)phosphoryl)oxy)propane-1,2-diyl) 8-di(henicosan-11-yl) di(octanedioate)] | 28.9 ng/mL |  |  | 12.9 ng/mL | 2.59 | 11.7 ng/mL | 
7 | 94% | 88% | 86% | 0.068 | 173 nm | 0.066 | 102.1 nm | 0.119 | 85.5 nm | 93% | 0.121 | 96.6 nm | CCCCCCCCOC(=O)CCCCCCCC(=O)OC(COC(=O)CCCCCCC(=O)OC(CCCCCCCC)CCCCCCCC)COP(=O)(O)OCCN(C)C (centres unmarked) [Compound 11, 1-(1-(((2-(Dimethylamino)ethoxy)(hydroxy)phosphoryl)oxy)-3-((8-(heptadecan-9-yloxy)-8-oxooctanoyl)oxy)propan-2-yl) 9-octyl nonanedioate] | 5.2 ng/mL | 4.8 ng/mL | 7.4 ng/mL | 8.7 ng/mL | 1.17 | 19.251 ng/mL | 11.25 ng/mL
8 | 94% | 96% | 93% | 0.048 | 166 nm | 0.127 | 141.9 nm | 0.112 | 98.0 nm |  |  |  | CCCCCCCCC(CCCCCCCC)OC(=O)CCCCCCC(=O)OC[C@@H](COP(=O)(O)OCCN(C)C)OC(=O)CCCCCCC(=O)OC(CCCCCCCC)CCCCCCCC [Compound 13] | 53.8 ng/mL |  |  | 64.4 ng/mL | 1.47 | 8.348 ng/mL | 
